Results on two molecules are retold here after publication PMC9142922, “Galactosylated Prodrugs: A Strategy to Improve the Profile of Nonsteroidal Anti-Inflammatory Drugs” (Pharmaceuticals, 2022).

In general, half-life refers to the time needed for the level to fall by half in the phase considered. High values mean slow decline, low ones rapid decline. By logD is commonly meant the decadic logarithm of the distribution of all forms, ionised or not, between an organic phase and buffer at a given pH.

The subject of data set [1] is carrageenan-induced paw edema in mice. Kind of data set: Carrageenan-induced paw edema / hyperalgesia. The data set is classed as in vivo, CD1 mice. The settings on record: oral; parent drugs 10 mg/kg, equimolecular IbuGAL 17.8, IndoGAL 14.5, OkyGAL 16.4, FluGAL 16.7 mg/kg. How it is done: We tested the anti-inflammatory response of the parent drugs and their relative galactosylated prodrugs by subcutaneously injecting λ-carrageenan (1% (w/v) in sterile saline, 20 μL) into the hind paws of mice.
Figure 4 (a–d). […] White circles represent control mice treated with vehicle. […] The increase in paw volume was evaluated and is expressed as the difference in paw volume measured at each time point and the basal paw volume measured immediately before carrageenan injection. Data are expressed as means ± S.E.M. of 6 animals. *** p < 0.001, ** p < 0.01 and […] vs. Control.
Carrageenan-induced paw edema was induced by injecting λ-carrageenan (1% w/v in sterile water, 20 μL) subcutaneously into the hind paws of mice using a 27 gauge needle. […] The increase in paw volume was evaluated using a plethysmometer (Ugo Basile, Milan, Italy) and reported as the difference between the paw volume measured at each time point and the basal paw volume measured immediately before carrageenan injection.

Data set [2] concerns NSAID-induced gastric damage in mice. Put plainly: Ulcerogenicity study (gastric lesion score). The data set is classed as in vivo, CD1 mice. Particulars: fasted mice, oral, parent 10 mg/kg or equimolecular prodrug, score 0 irritation, 1 lesions 1-2 mm, 2 lesions 2-3 mm, 3 lesions >3 mm; for Gastric Lesion Score (4 h): 4 h after treatment; for Gastric Lesion Score (48 h): 48 h after treatment. How it is done:
NSAID-induced gastric damage in mice was evaluated following the procedure described by Chan et al.. […] The mucosa was then examined by means of a magnifying glass for the presence of irritation or frank hemorrhagic lesions (ulcers). Irritation was assigned a score of 0, and ulcerations were scored according to their length (a score of 1 for lesions with a length between 1 and 2 mm, a score of 2 for lesions with a length between 2 and 3 mm, a score of 3 for lesions greater than 3 mm). The sum of total scores was used for comparison.

Data set [3] is described as follows: Chemical stability in SGF (pH 1.2) and PBS (pH 7.4) at 37 °C. The data set is classed as physicochemical. The settings on record: unmodified incubated compound, 100 µM, PBS pH 7.4, 37 °C, mean ± SD. How it is done:
The concentrations of the galactosylated prodrugs and the parent drugs derived from the prodrugs were quantified using RP-HPLC (Table 2).
A 10 mM solution of each compound (the galactosylated prodrugs and their parent drugs) was added to either simulated gastric fluid (SGF-without pepsin) or phosphate-buffered saline (PBS, 50 mM). The SGF and PBS buffers were prepared as previously described.

Data set [4] can be described thus: Stability in human serum at 37 °C. Particulars: for degradation in human serum in 24 h / Stability at 37 °C, % compound after 24 h of incubation, Human Serum: 37 °C; for half-life at 200 µM: male, human; for Stability at 37 °C, % compound after 24 h of incubation, Human Serum: unmodified incubated compound, 200 µM, mean ± SD.
Description: A solution of each compound (10 mM in DMSO) was added to human serum (sterile-filtered from human male AB plasma, USA origin, sterile-filtered, Sigma-Aldrich) and preheated and maintained at 37 °C ± 0.5 °C. Three-hundred microliters of the resulting solutions (200 µM) was withdrawn at appropriate time intervals and added to 300 µL of CH3CN, which contained 0.1% TFA, in order to deproteinize the serum. […] Each clear supernatant was filtered using 0.45 µm PTFE filters (VWR International S.r.l., Milano, Italy) and analyzed via RP-HPLC as described below.
The reverse-phase HPLC procedure allowed the galactosylated prodrugs and their parent drugs to be separated and quantified. […] The analytical column was a ZORBAX Eclipse XDB-C8 (150 × 4.6 mm, 5 µm; Agilent, Santa Clara, CA, USA). The mobile phase consisted of 0.1% aqueous TFA and 0.1% TFA CH3CN 50/50 w/w% at a flow rate of 1.0 mL/min. The injection volume was 20 µL (Rheodyne, Cotati, CA, USA). The column effluent was monitored at 228 nm and 254 nm, referenced against an 800 nm wavelength. The quantitation of compounds was calculated using calibration curves and the linearity of the calibration curves was determined in a concentration range of 1–100 µM (r^2 > 0.99).
The subject of data set [5] is acetic-acid-induced writhing in mice. Kind of data set: Acetic-acid-induced writhing test. Type of data set: in vivo, CD1 mice. Particulars: oral IbuGAL 17.8, IndoGAL 14.5, OkyGAL 16.4, FluGAL 16.7 mg/kg; 0.6% acetic acid i.p.; 48 h. How it is done: The number of acetic-acid-induced abdominal stretches can be evaluated in Figure 3. Control mice received an intraperitoneal injection of 0.6% acetic acid (10 mL/kg). […]
Figure 5 (a–d). Total number of writhing episodes within 20 min after acetic acid injection. […] Data are expressed as means ± S.E.M. of 6 animals. *** p < 0.001, ** p < 0.01 vs. Control.
The acetic-acid-induced writhing test was performed as reported previously. […] The number of abdominal constrictions and extensions of the trunk and hind limbs were counted for each group of mice, starting from 5 min after the injection of acetic acid up to 20 min afterwards, and expressed as the number of writhing episodes.
On the technique in general: Writhing tests count abdominal constrictions after an irritant is injected.

Data set [6] is described as follows: Ex vivo permeation across excised rat small intestine (non-everted intestinal sac). The settings on record: compound filled into the sac, 5 mg/Kg in PBS + methocel 3%, 37 °C, 2 h; for Fraction Absorbed (Fa) ± SE, Duodenum: rat duodenum; for Fraction Absorbed (Fa) ± SE, Ileum: rat ileum; for Fraction Absorbed (Fa) ± SE, Jejunum: rat jejunum. The data set is classed as in vitro ADME, male Wistar rats. How it is done: The permeability of the galactosylated prodrugs and the parent drugs through the rat small intestine was assessed ex vivo using the non-everted intestinal sac method. Despite some shortcomings (e.g., the interruption of normal blood flow, lack of a nervous system) this test is widely used to investigate the passive absorption of molecules and can provide further data when equipped with a mucus layer, which includes proteins of drug transport and metabolism.
A suspension of the tested compounds (5 mg/Kg in PBS + methocel 3%) was syringed into intestinal sacs that consisted of different segments of rat small intestine (duodenum, jejunum, ileum). The compound-enriched tissues were incubated at 37 °C for 2 h.
In order to verify the presence of the galactosylated compounds in the intestinal tissues, the intestinal sacs were opened at the end of the incubation period, washed with fresh buffer and homogenized in ethanol and the supernatant was dried. The concentrations of the galactosylated prodrugs and the prodrug-derived parent drugs were quantified using RP-HPLC (Figure 3a–d).
An evaluation of ex vivo absorption was carried out using permeation measurements in excised rat small intestines, as previously published, with some modifications. Briefly, male Wistar rats (200–250 g) were anesthetized with isoflurane, decapitated and exsanguinated. Freshly excised rat duodenum, jejunum and ileum tissue was washed with Krebs–Ringer buffer (KRB) and cut into pieces of 4–5 cm. Then, 0.2 mL of a suspension containing the compounds (5 mg/Kg, PBS + Methocel 3%) were syringed into intestinal sacs and the compound-enriched tissues were incubated in oxygenated KRB (10 mL) at 37 °C with smooth shaking. […] Tests were carried out in triplicate for each compound on three intestinal segments from three different rats. The concentration in the incubation buffer was quantified via RP-HPLC, as reported above.
At the end of the incubation period, the intestinal sacs were opened, washed with fresh buffer, homogenized in ethanol (1 mL, UltraTurrax) and centrifuged at 13,000× g for 5 min and the supernatant was dried with nitrogen. After resolubilization in 0.5 mL of methanol, the concentrations of the galactosylated prodrugs and prodrug-derived parent drugs were quantified using RP-HPLC.

Data set [7] in a line: Distribution coefficient n-octanol/PBS pH 7.4, shake-flask. The data set is classed as physicochemical. Particulars: room temperature, mean ± SD. An excerpt: Lipophilicity is the key physicochemical parameter that influences solubility and various other aspects of the pharmacokinetic and pharmacodynamic profile of drugs. The hydrophilic-lipophilic behavior of galactosylated prodrugs and parent drugs was investigated by measuring the distribution coefficients (log D^pH) in n-octanol-phosphate buffered saline (PBS, pH 7.4) using the shake-flask technique.
Each log D value is an average of a minimum of six measurements.

Marks after values point to notes of the source that are not given here.

For `CC(C(=O)OC[C@H]1OC(O)[C@H](O)[C@@H](O)[C@H]1O)c1ccc(-c2ccccc2)c(F)c1` (stereo partly drawn) [FluGAL], in data set [1], the “effect on carrageenan-induced paw edema/hyperalgesia during the first phase (0–6 h)” value is listed as “did not change”. In data set [2], the “Gastric Lesion Score (4 h)” value is recorded as 0 ** and the “Gastric Lesion Score (48 h)” value is on record as 0.5. For the same molecule, the “Stability at 37 °C, % compound after 24 h of incubation, PBS pH 7.4” value in data set [3] stood at 87.3 ± 2.1%. Also, in data set [4], the “degradation in human serum in 24 h” value is roughly 50%; the half-life at 200 µM is roughly 24 h; the “Stability at 37 °C, % compound after 24 h of incubation, Human Serum” value worked out at 57.3 ± 1.4%. Besides, the “writhing responses after 48 h vs control” value in data set [5] was “significant decrease”. In data set [6], the “Fraction Absorbed (Fa) ± SE, Duodenum” value was 0.060 ± 0.014; the “Fraction Absorbed (Fa) ± SE, Ileum” value stood at 0.033 ± 0.008; the “Fraction Absorbed (Fa) ± SE, Jejunum” value was 0.031 ± 0.015. In data set [7], the log distribution coefficient (logD) amounted to 1.89 ± 0.09.

As to `CC(C)Cc1ccc(C(C)C(=O)OC[C@H]2OC(O)[C@H](O)[C@@H](O)[C@H]2O)cc1` (stereo partly drawn) [IbuGAL], the “effect on carrageenan-induced paw edema/hyperalgesia during the first phase (0–6 h)” value in data set [1] is “did not change”. Further, in data set [2], the “Gastric Lesion Score (4 h)” value is listed as 0 ** and the “Gastric Lesion Score (48 h)” value is recorded as 1. In data set [3], the “Stability at 37 °C, % compound after 24 h of incubation, PBS pH 7.4” value turned out to be 81.2 ± 2.5%. Besides, in data set [4], the “degradation in human serum in 24 h” value is roughly 50%; the half-life at 200 µM is roughly 24 h; the “Stability at 37 °C, % compound after 24 h of incubation, Human Serum” value is listed as 54.1 ± 2.2%. Further, in data set [5], the “writhing responses after 48 h vs control” value is reported as “significant decrease”. In data set [6], the “Fraction Absorbed (Fa) ± SE, Duodenum” value turned out to be 0.013 ± 0.006; the “Fraction Absorbed (Fa) ± SE, Ileum” value is 0.031 ± 0.016; the “Fraction Absorbed (Fa) ± SE, Jejunum” value was 0.026 ± 0.014. In data set [7], this molecule registered a logD of 1.73 ± 0.04.
